Active and inactive are the calls of the source.
Columns and labels:
[1] = A cytotoxicity screen of small molecule inhibitors of the PhoP region in Salmonella typhi identified in the primary screen. [Related pubchem assays: 1850, 1864, 1985 ]; assay type: functional
[2] = target: T1, Mannose-6-phosphate isomerase (Homo sapiens, UniProt P34949); test: human PMI inhibitors, high substrate, primary screen, biochemical, fluorescence intensity, high mannose 6-phosphate (AID 1220)
T1 sequence (P34949 whole entry): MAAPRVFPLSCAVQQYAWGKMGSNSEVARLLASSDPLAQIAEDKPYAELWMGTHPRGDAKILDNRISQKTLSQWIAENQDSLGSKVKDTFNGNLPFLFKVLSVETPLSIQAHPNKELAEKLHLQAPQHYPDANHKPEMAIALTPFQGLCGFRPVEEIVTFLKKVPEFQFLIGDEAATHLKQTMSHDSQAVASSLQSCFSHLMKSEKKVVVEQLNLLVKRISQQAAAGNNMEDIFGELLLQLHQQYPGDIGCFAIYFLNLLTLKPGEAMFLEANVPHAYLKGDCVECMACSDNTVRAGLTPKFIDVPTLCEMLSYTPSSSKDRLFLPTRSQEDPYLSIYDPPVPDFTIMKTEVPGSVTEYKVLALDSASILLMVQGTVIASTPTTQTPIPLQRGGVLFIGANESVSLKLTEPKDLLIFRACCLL

[3] = target: T1, Mannose-6-phosphate isomerase; test: inhibitors of human PMI, primary screen, biochemical, fluorescence intensity, coupled assay (AID 1209)
[4] = target: FAD-linked sulfhydryl oxidase ALR (Homo sapiens, UniProt P55789); test: inhibitors of human ALR sulfhydryl oxidase, dose response, biochemical, H2O2 detection, luminescence, cherry-pick (AID 493248)
[5] = Luminescence Cell-Based Dose Retest to Confirm Inhibitors of Cancer Stem Cells. [Related pubchem assays (depositor defined):AID2717, AID2721]; assay type: functional; conditions: Homo sapiens
[6] = target: T2, Sentrin-specific protease 7 (Homo sapiens, UniProt Q9BQF6); assay type: functional;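 further: Luminescence-based dose-response confirmation of ultra-high-throughput screening hits, measuring inhibition of SENP7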
T2 sequence (Q9BQF6 whole entry): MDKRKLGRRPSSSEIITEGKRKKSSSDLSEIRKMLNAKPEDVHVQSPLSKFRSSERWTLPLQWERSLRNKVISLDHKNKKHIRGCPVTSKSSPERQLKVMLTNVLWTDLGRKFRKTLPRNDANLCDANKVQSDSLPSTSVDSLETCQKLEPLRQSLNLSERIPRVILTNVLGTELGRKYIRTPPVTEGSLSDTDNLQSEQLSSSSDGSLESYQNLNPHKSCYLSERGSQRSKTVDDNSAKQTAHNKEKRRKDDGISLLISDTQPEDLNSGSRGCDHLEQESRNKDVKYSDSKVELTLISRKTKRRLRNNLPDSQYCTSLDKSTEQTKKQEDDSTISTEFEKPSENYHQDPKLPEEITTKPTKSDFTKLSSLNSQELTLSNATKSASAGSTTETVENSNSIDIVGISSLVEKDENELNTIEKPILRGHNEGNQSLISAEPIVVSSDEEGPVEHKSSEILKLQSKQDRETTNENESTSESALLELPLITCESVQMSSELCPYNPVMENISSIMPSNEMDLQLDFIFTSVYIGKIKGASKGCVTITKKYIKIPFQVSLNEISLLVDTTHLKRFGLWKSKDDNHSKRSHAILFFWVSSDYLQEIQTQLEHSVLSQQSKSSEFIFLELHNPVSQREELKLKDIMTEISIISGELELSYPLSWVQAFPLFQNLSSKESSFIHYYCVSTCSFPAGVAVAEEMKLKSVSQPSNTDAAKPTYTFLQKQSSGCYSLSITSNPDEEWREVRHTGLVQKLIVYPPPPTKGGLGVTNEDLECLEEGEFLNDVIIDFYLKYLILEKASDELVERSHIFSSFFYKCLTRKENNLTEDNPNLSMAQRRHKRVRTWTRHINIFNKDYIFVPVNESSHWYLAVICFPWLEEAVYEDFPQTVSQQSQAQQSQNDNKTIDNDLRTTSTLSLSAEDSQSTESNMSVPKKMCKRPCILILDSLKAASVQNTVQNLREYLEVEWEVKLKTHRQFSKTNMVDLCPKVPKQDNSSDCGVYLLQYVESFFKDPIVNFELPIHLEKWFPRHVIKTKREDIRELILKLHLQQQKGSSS

[7] = target: T3, Sentrin-specific protease 8 (Homo sapiens, UniProt Q96LD8); assay type: functional;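 further: luminescence read-out of SENP8 inhibition, dose-response confirmation following an ultra-high-throughput screen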
T3 sequence (Q96LD8 whole entry): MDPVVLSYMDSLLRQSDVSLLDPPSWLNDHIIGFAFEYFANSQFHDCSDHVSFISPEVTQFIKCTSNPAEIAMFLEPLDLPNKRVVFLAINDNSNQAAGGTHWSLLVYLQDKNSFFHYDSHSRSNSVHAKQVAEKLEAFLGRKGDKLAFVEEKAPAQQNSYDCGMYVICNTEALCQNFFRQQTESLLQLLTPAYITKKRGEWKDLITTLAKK

[8] = Luminescence Cell-Based Dose Response HTS to Identify Activators of Luciferase Translation or Activity in H4 […] Cells. [Related pubchem assays: 1829 (Project Summary), 1814 (Primary HTS)]; assay type: functional
[9] = Luminescence Cell-Based Dose Response to Identify Activators of Luciferase Translation or Activity in H4-C Neuroglioblastoma Cells. [Related pubchem assays: 1829 (Project Summary), 1814 (Primary HTS)]; assay type: functional
Caspase-3 = target: T4, Caspase-3 (Homo sapiens, UniProt P42574); assay type: functional;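 further: Dose-response selectivity test against caspase-3 for candidate inhibitors of sentrin-specific proteases (SENPs)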
T4 sequence (P42574 whole entry): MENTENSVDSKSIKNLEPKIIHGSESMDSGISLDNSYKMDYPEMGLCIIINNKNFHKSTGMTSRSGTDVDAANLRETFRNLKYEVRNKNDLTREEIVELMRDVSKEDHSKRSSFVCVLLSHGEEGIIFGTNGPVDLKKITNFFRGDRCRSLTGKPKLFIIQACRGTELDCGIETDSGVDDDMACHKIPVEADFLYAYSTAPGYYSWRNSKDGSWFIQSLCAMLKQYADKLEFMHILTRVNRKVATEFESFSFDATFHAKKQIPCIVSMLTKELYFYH

H4 = test: Luminescence Cell-Based Dose Response HTS to Identify Activators of 5'UTR Stem-Loop Driven Prion Protein mRNA Translation in H4 Neuroglioblastoma Cells. [Related pubchem assays: 1829 (Project Summary), 1814 (Primary HTS)]; assay type: functional; conditions: Homo sapiens
[10] = Luminescence Cell-Based Dose Response to Identify Activators of 5'UTR Stem-Loop Driven Prion Protein mRNA Translation in H4-C Neuroglioblastoma Cells. [Related pubchem assays: 1829 (Project Summary), 1814 (Primary HTS)]; assay type: functional
[11] = Luminescence Cell-Based Dose Confirmation to Identify Activators of 5'UTR Stem-Loop Driven Alpha-Synuclein mRNA Translation in H4 Neuroglioblastoma Cells. [Related pubchem assays: 1829 (Project Summary), 1814 (Primary HTS)]; assay type: functional
[12] = Luminescence Cell-Based Dose Confirmation HTS to Identify Activators of 5'UTR Stem-Loop Driven Alpha-Synuclein mRNA Translation in H4 Neuroglioblastoma Cells. [Related pubchem assays: 1829 (Project Summary), 1814 (Primary HTS)]; assay type: functional
[13] = target: T5, Sentrin-specific protease 6 (Homo sapiens, UniProt Q9GZR1); assay type: functional;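 further: Luminescence-based dose-response confirmatory assay of SENP6 inhibition, following up an ultra-high-throughput screen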
T5 sequence (Q9GZR1 whole entry): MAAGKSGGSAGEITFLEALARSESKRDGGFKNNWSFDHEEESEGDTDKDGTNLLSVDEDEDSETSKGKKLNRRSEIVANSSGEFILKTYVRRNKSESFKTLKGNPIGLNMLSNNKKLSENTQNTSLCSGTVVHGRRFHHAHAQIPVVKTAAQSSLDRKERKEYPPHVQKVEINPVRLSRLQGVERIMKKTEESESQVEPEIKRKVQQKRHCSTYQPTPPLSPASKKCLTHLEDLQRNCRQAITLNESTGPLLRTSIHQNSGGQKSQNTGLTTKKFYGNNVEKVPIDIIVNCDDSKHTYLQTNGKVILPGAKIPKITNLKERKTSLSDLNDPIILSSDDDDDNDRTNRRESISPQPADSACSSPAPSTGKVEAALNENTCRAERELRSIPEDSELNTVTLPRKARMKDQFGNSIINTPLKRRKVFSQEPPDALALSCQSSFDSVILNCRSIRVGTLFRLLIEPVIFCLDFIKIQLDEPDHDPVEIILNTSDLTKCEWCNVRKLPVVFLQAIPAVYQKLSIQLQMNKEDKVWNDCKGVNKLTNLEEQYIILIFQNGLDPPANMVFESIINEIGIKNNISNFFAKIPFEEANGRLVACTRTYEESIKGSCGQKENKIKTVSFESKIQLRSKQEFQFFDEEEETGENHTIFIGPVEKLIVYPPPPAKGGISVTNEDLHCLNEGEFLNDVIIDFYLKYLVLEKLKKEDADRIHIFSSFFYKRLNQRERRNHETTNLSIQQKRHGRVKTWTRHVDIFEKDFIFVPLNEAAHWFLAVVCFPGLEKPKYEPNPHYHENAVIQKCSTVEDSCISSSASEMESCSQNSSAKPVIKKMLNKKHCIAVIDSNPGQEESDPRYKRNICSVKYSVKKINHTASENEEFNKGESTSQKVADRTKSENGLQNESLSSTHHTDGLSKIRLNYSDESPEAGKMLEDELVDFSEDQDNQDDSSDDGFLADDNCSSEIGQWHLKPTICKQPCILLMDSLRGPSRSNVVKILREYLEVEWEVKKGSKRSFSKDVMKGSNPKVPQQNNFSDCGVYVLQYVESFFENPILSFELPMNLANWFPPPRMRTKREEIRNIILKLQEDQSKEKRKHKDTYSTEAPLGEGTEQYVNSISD

[14] = M. tuberculosis H37Rv growth inhibitors, H37Rv strain (AID 1626); assay type: functional

Sequence of FAD-linked sulfhydryl oxidase ALR (P55789 whole entry): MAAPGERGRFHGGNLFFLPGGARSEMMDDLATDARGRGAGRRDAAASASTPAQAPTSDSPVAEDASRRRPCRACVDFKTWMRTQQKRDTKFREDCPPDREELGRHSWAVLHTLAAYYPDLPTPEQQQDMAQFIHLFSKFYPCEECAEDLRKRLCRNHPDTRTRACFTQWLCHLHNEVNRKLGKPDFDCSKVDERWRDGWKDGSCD

SMILES | EC50 [8] | EC50 [9] | EC50 (H4) | EC50 [10] | EC50 [11] | IC50 [14] | other results
C=CCSc1nnc(NC(=O)CSc2nc3ccccc3o2)s1 | – | – | – | – | – | – | EC50 [1]: > 50 µM (active)
CC(C)CCSc1cc(NCCO)c([N+](=O)[O-])c2nonc12 | – | – | – | – | – | – | IC50 [2]: > 50 µM (not active); IC50 [3]: > 50 µM (not active)
O=C(NCc1ccco1)c1ccc2c(c1)N(Cc1ccccc1)CCS2 | – | – | – | – | – | – | AC50 [4]: 81.2 µM (active); EC50 [1]: > 50 µM (active); AC50 [5]: 11.3 µM (active)
O=C1c2ccccc2C(=O)N1CCSc1ccccc1 | 0.18 µM (active) | 0.42 µM (active) | < 0.1 µM (active) | 1.41 µM (active) | 0.279 µM (active) | – | IC50 [6]: 9.56 µM (active); IC50 [7]: 35 µM (active); IC50 (Caspase-3): 14.5 µM (active); EC50 [12]: 21.9 µM (active); IC50 [13]: 30.4 µM (active)
c1ccc(CSCc2cn3ccsc3n2)cc1 | 40.7 µM (active) | – | 7.85 µM (active) | – | – | – | IC50 [2]: > 50 µM (not active); EC50 [12]: 0.562 µM (active); IC50 [3]: > 50 µM (not active)
CC(C)(C)c1ccc(C(=O)NC(=S)N2CCOCC2)cc1 | 0.61 µM (active) | > 12 µM (not active) | 0.111 µM (active) | 0.418 µM (active) | 2.81 µM (active) | – | –
Cc1nc2cc(NC(=O)CCS(=O)(=O)c3ccccc3)ccc2s1 | < 0.1 µM (inconclusive) | 0.264 µM (active) | – | 0.312 µM (active) | 0.069 µM (active) | – | –
CCOC(=O)c1ccc(NC(C)=C2C(=O)NC(=O)NC2=O)cc1 | – | – | – | – | – | > 100 µM (active) | –
COc1ccc(NC2=CC(c3ccc(OC)cc3)N(c3ccc(OC)cc3)C2=O)cc1 (stereo not drawn) | – | – | – | – | – | > 100 µM (active) | –
CCCCC(=O)Nc1ccc2c(c1)oc1ccccc12 | – | – | – | – | – | > 100 µM (active) | –
